# Data as given in US20240199535A1, “DEUTERATED DHODH INHIBITORS” (priority 2021, published 2024).
# Columns and labels:
# SARS-CoV-2 = test: Antiviral activity on SARS-CoV-2, viral replication (YFP) assay; type: cell-based; conditions: Severe acute respiratory syndrome coronavirus 2, read-out: EC50 range
# in vitro [1] = conditions: male, rat, microsomes
# in vivo [2] = conditions: CC7BL/6J, mouse, po, 5 mg/kg
# Protocol: The pharmacokinetics of the compounds of the present invention was evaluated in 3 male and 3 female mice (CC7BL/6J, 8 week old) after oral cassette dosing. Dose was 5 mg/kg, application volume was 5 mL/kg and vehicle was 5% Solutol, 95% NaCl solution (at 0.9% saline concentration). At each designated time point (0, 0.25, 0.5, 1, 2, 4, 8 h after dosing), 20 μL whole blood were collected from the tail vein into Li-heparin tubes, frozen on dry ice within 1-2 minutes of sampling and stored at −20° C. until processed for LC-MS analysis.
# in vivo [3] = conditions: Han Wistar, rat
# Protocol: Rats are provided with a catheter in the jugular vein (2-3 days prior to blood sampling). At each designated time point (0, 1, 2, 4, 8 and 24 h after dosing), 100 μL blood were collected into Li-heparin tubes, stored on ice until centrifugation (10 minutes at 3000 g, 4° C.) and plasma was prepared within 45 min after collection, frozen at −20° C. and stored at this temperature until processed for LC-MS analysis.
# in vitro [4] = conditions: human, microsomes
compound,measurement,setting,value
[2H]C([2H])([2H])Oc1ccccc1-c1cc(F)c(NC(=O)C2=C(C(=O)O)CCC2)c(F)c1 [1/4],EC50,SARS-CoV-2,< 10 µM
"[2H]C([2H])([2H])Oc1cccc(-c2cnc(NC(=O)C3=C(C(=O)O)CCC3)c(F)c2)c1 [Example 12, 2-((3-Fluoro-5-(3-(methoxy-d3)phenyl)pyridin-2-yl)carbamoyl)cyclopent-1-ene-1-carboxylic Acid]",EC50,SARS-CoV-2,< 10 µM
"[2H]C([2H])([2H])Oc1cccc(-c2cc(F)c(NC(=O)C3=C(C(=O)O)CSC3)c(F)c2)c1 [Example 10, 4-((3,5-Difluoro-3′-(methoxy-d3)-[1,1′-biphenyl]-4-yl)carbamoyl)-2,5-dihydro-thiophene-3-carboxylic Acid]",EC50,SARS-CoV-2,10 to 25 µM
[2H]C([2H])([2H])C([2H])([2H])Oc1cccc(-c2cc(F)c(NC(=O)C3=C(C(=O)O)CCC3)c(F)c2)c1 [1/3],EC50,SARS-CoV-2,< 10 µM
"[2H]C([2H])([2H])Oc1cccc(-c2ccc(NC(=O)C3=C(C(=O)O)CCC3)c(F)c2)c1 [Example 1, 2-((3-Fluoro-3′-(methoxy-d3)-[1,1′-biphenyl]-4-yl)carbamoyl)cyclopent-1-ene-1-carboxylic Acid]",microsomal CLint,in vitro [1],13.4 µL/min/mg
same,AUC,in vivo [2]; female,5740 ng·h/mL
same,Cmax,in vivo [2]; female,3440 ng/mL
same,half-life,in vivo [2]; female,1.6 h
same,AUC,in vivo [2]; male,5110 ng·h/mL
same,Cmax,in vivo [2]; male,4110 ng/mL
same,half-life,in vivo [2]; male,1.7 h
same,% AUCextra,"in vivo [3]; female, iv, 1 mg/kg",13%
same,AUC(0-inf),"in vivo [3]; female, iv, 1 mg/kg",80700 ng·h/mL
same,AUC(0-t),"in vivo [3]; female, iv, 1 mg/kg",66200 ng·h/mL
same,C0,"in vivo [3]; female, iv, 1 mg/kg",7010 ng/mL
same,Cz,"in vivo [3]; female, iv, 1 mg/kg",943 ng/mL
same,Vz/f,"in vivo [3]; female, iv, 1 mg/kg",0.017 L/kg
same,t1/2z,"in vivo [3]; female, iv, 1 mg/kg",9.9 h
same,tz,"in vivo [3]; female, iv, 1 mg/kg",24 h
same,bioavailability,"in vivo [3]; female, po",75.3%
same,% AUCextra,"in vivo [3]; female, po, 5 mg/kg",17%
same,AUC(0-inf),"in vivo [3]; female, po, 5 mg/kg",291000 ng·h/mL
same,AUC(0-t),"in vivo [3]; female, po, 5 mg/kg",249000 ng·h/mL
same,CL/F,"in vivo [3]; female, po, 5 mg/kg",3.77 mL/min/kg
same,Cmax,"in vivo [3]; female, po, 5 mg/kg",19700 ng/mL
same,Cz,"in vivo [3]; female, po, 5 mg/kg",3536 ng/mL
same,Tmax,"in vivo [3]; female, po, 5 mg/kg",2 h
same,Vd/F,"in vivo [3]; female, po, 5 mg/kg",0.016 L/kg
same,t1/2z,"in vivo [3]; female, po, 5 mg/kg",9.1 h
same,tz,"in vivo [3]; female, po, 5 mg/kg",24 h
same,% AUCextra,"in vivo [3]; male, iv, 1 mg/kg",22%
same,AUC(0-inf),"in vivo [3]; male, iv, 1 mg/kg",47900 ng·h/mL
same,AUC(0-t),"in vivo [3]; male, iv, 1 mg/kg",42600 ng·h/mL
same,C0,"in vivo [3]; male, iv, 1 mg/kg",5540 ng/mL
same,Cz,"in vivo [3]; male, iv, 1 mg/kg",437 ng/mL
same,Vz/f,"in vivo [3]; male, iv, 1 mg/kg",0.01 L/kg
same,t1/2z,"in vivo [3]; male, iv, 1 mg/kg",7.9 h
same,tz,"in vivo [3]; male, iv, 1 mg/kg",24 h
same,bioavailability,"in vivo [3]; male, po",86%
same,% AUCextra,"in vivo [3]; male, po, 5 mg/kg",24%
same,AUC(0-inf),"in vivo [3]; male, po, 5 mg/kg",210000 ng·h/mL
same,AUC(0-t),"in vivo [3]; male, po, 5 mg/kg",183000 ng·h/mL
same,CL/F,"in vivo [3]; male, po, 5 mg/kg",3.82 mL/min/kg
same,Cmax,"in vivo [3]; male, po, 5 mg/kg",14600 ng/mL
same,Cz,"in vivo [3]; male, po, 5 mg/kg",1525 ng/mL
same,Tmax,"in vivo [3]; male, po, 5 mg/kg",2 h
same,Vd/F,"in vivo [3]; male, po, 5 mg/kg",0.008 L/kg
same,t1/2z,"in vivo [3]; male, po, 5 mg/kg",6.6 h
same,tz,"in vivo [3]; male, po, 5 mg/kg",24 h
same,microsomal CLint,in vitro [4]; both,0.96 µL/min/mg
same,microsomal CLint,in vitro [4]; female,5.02 µL/min/mg
same,microsomal CLint,in vitro [4]; male,7.69 µL/min/mg
"[2H]C([2H])([2H])Oc1cccc(-c2cc(F)c(NC(=O)C3=C(C(=O)O)COC3)c(F)c2)c1 [Example 11, 4-((3,5-Difluoro-3′-(methoxy-d3)-[1,1′-biphenyl]-4-yl)carbamoyl)-2,5-dihydrofuran-3-carboxylic Acid]",EC50,SARS-CoV-2,> 50 µM
"[2H]c1cc([2H])c(-c2ccc(NC(=O)C3=C(C(=O)O)CCC3)c(F)c2)c([2H])c1OC([2H])([2H])[2H] [Example 2, 2-((3-Fluoro-3′-(methoxy-d3)-[1,1′-biphenyl]-4-yl-2′,4′,6′-d3)carbamoyl)cyclopent-1-ene-1-carboxylic Acid]",% AUCextra,"in vivo [3]; female, iv, 1 mg/kg",13%
same,AUC(0-inf),"in vivo [3]; female, iv, 1 mg/kg",79100 ng·h/mL
same,AUC(0-t),"in vivo [3]; female, iv, 1 mg/kg",64700 ng·h/mL
same,C0,"in vivo [3]; female, iv, 1 mg/kg",7980 ng/mL
same,Cz,"in vivo [3]; female, iv, 1 mg/kg",915 ng/mL
same,Vz/f,"in vivo [3]; female, iv, 1 mg/kg",0.017 L/kg
same,t1/2z,"in vivo [3]; female, iv, 1 mg/kg",10.0 h
same,tz,"in vivo [3]; female, iv, 1 mg/kg",24 h
same,bioavailability,"in vivo [3]; female, po",83.1%
same,% AUCextra,"in vivo [3]; female, po, 5 mg/kg",16%
same,AUC(0-inf),"in vivo [3]; female, po, 5 mg/kg",320000 ng·h/mL
same,AUC(0-t),"in vivo [3]; female, po, 5 mg/kg",269000 ng·h/mL
same,CL/F,"in vivo [3]; female, po, 5 mg/kg",3.5 mL/min/kg
same,Cmax,"in vivo [3]; female, po, 5 mg/kg",21300 ng/mL
same,Cz,"in vivo [3]; female, po, 5 mg/kg",3892 ng/mL
same,Tmax,"in vivo [3]; female, po, 5 mg/kg",2 h
same,Vd/F,"in vivo [3]; female, po, 5 mg/kg",0.017 L/kg
same,t1/2z,"in vivo [3]; female, po, 5 mg/kg",9.3 h
same,tz,"in vivo [3]; female, po, 5 mg/kg",24 h
same,% AUCextra,"in vivo [3]; male, iv, 1 mg/kg",23%
same,AUC(0-inf),"in vivo [3]; male, iv, 1 mg/kg",45200 ng·h/mL
same,AUC(0-t),"in vivo [3]; male, iv, 1 mg/kg",40400 ng·h/mL
same,C0,"in vivo [3]; male, iv, 1 mg/kg",5310 ng/mL
same,Cz,"in vivo [3]; male, iv, 1 mg/kg",422 ng/mL
same,Vz/f,"in vivo [3]; male, iv, 1 mg/kg",0.01 L/kg
same,t1/2z,"in vivo [3]; male, iv, 1 mg/kg",7.6 h
same,tz,"in vivo [3]; male, iv, 1 mg/kg",24 h
same,bioavailability,"in vivo [3]; male, po",100%
same,% AUCextra,"in vivo [3]; male, po, 5 mg/kg",22%
same,AUC(0-inf),"in vivo [3]; male, po, 5 mg/kg",233000 ng·h/mL
same,AUC(0-t),"in vivo [3]; male, po, 5 mg/kg",202000 ng·h/mL
same,CL/F,"in vivo [3]; male, po, 5 mg/kg",3.43 mL/min/kg
same,Cmax,"in vivo [3]; male, po, 5 mg/kg",16000 ng/mL
same,Cz,"in vivo [3]; male, po, 5 mg/kg",1657 ng/mL
same,Tmax,"in vivo [3]; male, po, 5 mg/kg",2 h
same,Vd/F,"in vivo [3]; male, po, 5 mg/kg",0.008 L/kg
same,t1/2z,"in vivo [3]; male, po, 5 mg/kg",6.6 h
same,tz,"in vivo [3]; male, po, 5 mg/kg",24 h
same,microsomal CLint,in vitro [4]; both,0.74 µL/min/mg
same,microsomal CLint,in vitro [4]; female,5.8 µL/min/mg
same,microsomal CLint,in vitro [4]; male,7.67 µL/min/mg
[2H]C([2H])([2H])Oc1nc(-c2cc(F)c(NC(=O)C3=C(C(=O)O)CCC3)c(F)c2)cs1 [1/8],EC50,SARS-CoV-2,25 to 50 µM
[2H]C([2H])([2H])Oc1cccc(-c2ccc(NC(=O)C3=C(C(=O)O)CCC3)c3cnccc23)c1 [12/3],EC50,SARS-CoV-2,25 to 50 µM
"[2H]c1cc([2H])c(-c2ccc(NC(=O)C3=C(C(=O)O)CCC3)c(F)c2)c([2H])c1O [Example 8, 2-((3-Fluoro-3′-hydroxy-[1,1′-biphenyl]-4-yl-2′,4′,6′-d3)carbamoyl)cyclopent-1-ene-1-carboxylic Acid]",EC50,SARS-CoV-2,25 to 50 µM
